Assay: Minimum concentration of CBD required for crystallization from solution
Type: physicochemical
Procedure: The minimum concentration of CBD required for selective crystallization from a solution containing a plurality of cannabinoids was evaluated.
The CBD-rich solution shown in Table A7 was diluted in MCT coconut oil to the aforementioned CBD concentrations. The samples were heated to 60° C. for about five minutes. Then, each solution was subjected to the following nucleation factors: agitation (intense stirring), cold shock (cooling solution to −20° C. and mixing), introduction of a CBD seed crystal, and exposure to a vacuum at a pressure of −25 inHg). Photographs of the crystallized cannabinoids were taken after 24 hours.
The experiment was also repeated using mixtures of cannabinoid CBD and THCa isolates in oleic acid.

C=C(C)[C@@H]1CCC(C)=C[C@H]1c1c(O)cc(CCCCC)cc1O [CBD, Cannabidiol]
lowest tested concentration of CBD that exhibited crystallization (CBD-rich solution with a plurality of cannabinoids diluted in MCT coconut oil, heated to 60° C., agitation, cold shock −20° C., seed crystal, vacuum −25 inHg, after 24 hours): 19.6% | lowest tested concentration of CBD that crystallized (mixtures of CBD and THCa isolates in oleic acid (FIG. 16: 24% CBD, 1% THCA, 75% oleic acid)): 24%

Source: patent US11345650B1, “Methods and systems for crystallizing and isolating individual cannabinoids” (MYKU Biosciences LLC, priority 2021, dated 2022)
